According to patent US9096627B2, “Hydroxamic acid derivatives” (Purdue Pharmaceutical Products L.P., priority 2009, dated 2015):

Key:
HDAC-2 = HDAC-2 (Homo sapiens (Human), UniProt Q92769); assay: biochemical; format: biochemical
Protocol: (§1) Hydroxamic acid is a well know metal-chelating agent, especially for Zn atom. […] Many of these metalloenzymes are well known important disease target, such as HDAC and MMP. […] The following protocol is used to assay the compounds of the invention against the HDAC enzymes.
(§2) The enzyme stock solution is 4 μg/mL in buffer. The compounds are pre-incubated (2 μl in DMSO diluted to 13 μl in buffer for transfer to assay plate) with enzyme (20 μl of 4 μg/ml) for 10 minutes at room temperature (35 μl pre-incubation volume). The mixture is pre-incubated for 5 minutes at room temperature. The reaction is started by bringing the temperature to 37° C. and adding […] substrate. Total reaction volume is 50 μl. […] Such assays, carried out with a range of doses of test compounds, allow the determination of an approximate IC50 value.

HDAC-3 = HDAC-3 (Homo sapiens (Human), UniProt O15379); assay: Inhibition of histone deacetylase enzymatic activity (Fluor-de-Lys); format: biochemical
Protocol: as §1, §2

HDAC-10 = HDAC-10 (Homo sapiens (Human), UniProt Q969S8); assay: as above; format: biochemical
Sequence of HDAC-10 (Q969S8 whole entry, species assumed): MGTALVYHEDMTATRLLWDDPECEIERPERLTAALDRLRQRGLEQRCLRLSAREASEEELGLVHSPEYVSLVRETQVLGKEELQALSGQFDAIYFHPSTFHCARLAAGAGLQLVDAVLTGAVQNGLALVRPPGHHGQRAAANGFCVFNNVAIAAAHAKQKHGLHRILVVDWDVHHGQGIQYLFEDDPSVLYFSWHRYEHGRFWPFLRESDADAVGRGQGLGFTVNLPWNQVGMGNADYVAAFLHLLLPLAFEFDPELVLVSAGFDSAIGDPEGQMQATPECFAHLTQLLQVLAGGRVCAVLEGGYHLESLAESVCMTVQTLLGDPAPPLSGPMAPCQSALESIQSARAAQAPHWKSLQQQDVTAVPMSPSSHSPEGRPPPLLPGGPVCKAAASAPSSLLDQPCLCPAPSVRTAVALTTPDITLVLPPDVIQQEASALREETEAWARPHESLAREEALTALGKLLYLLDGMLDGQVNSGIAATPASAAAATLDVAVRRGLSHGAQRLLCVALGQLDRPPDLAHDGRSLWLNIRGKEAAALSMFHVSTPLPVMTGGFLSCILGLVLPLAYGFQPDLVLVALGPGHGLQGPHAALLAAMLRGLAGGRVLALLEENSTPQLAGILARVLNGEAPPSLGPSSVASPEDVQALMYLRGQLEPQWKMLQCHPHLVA
Protocol: as §1, §2

HDAC-1 = HDAC-1 (Homo sapiens (Human), UniProt Q13547); assay: as above; format: biochemical
Sequence of HDAC-1 (Q13547 whole entry, species assumed): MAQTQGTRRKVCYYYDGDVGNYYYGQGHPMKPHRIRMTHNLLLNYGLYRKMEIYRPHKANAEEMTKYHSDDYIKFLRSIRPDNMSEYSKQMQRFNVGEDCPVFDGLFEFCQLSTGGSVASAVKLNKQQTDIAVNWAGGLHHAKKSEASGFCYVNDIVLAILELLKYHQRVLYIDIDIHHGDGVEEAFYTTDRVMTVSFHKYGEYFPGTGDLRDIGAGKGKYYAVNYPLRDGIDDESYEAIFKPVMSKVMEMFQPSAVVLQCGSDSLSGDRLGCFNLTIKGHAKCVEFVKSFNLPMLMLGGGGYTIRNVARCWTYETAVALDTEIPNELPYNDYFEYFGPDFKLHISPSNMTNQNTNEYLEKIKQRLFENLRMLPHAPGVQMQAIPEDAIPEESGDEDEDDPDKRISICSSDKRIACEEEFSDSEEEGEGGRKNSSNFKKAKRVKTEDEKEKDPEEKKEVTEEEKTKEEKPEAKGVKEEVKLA
Protocol: as §1, §2

HDAC-6 = HDAC-6 (Homo sapiens (Human), UniProt Q9UBN7); assay: as above; format: biochemical
Sequence of HDAC-6 (Q9UBN7 whole entry, species assumed): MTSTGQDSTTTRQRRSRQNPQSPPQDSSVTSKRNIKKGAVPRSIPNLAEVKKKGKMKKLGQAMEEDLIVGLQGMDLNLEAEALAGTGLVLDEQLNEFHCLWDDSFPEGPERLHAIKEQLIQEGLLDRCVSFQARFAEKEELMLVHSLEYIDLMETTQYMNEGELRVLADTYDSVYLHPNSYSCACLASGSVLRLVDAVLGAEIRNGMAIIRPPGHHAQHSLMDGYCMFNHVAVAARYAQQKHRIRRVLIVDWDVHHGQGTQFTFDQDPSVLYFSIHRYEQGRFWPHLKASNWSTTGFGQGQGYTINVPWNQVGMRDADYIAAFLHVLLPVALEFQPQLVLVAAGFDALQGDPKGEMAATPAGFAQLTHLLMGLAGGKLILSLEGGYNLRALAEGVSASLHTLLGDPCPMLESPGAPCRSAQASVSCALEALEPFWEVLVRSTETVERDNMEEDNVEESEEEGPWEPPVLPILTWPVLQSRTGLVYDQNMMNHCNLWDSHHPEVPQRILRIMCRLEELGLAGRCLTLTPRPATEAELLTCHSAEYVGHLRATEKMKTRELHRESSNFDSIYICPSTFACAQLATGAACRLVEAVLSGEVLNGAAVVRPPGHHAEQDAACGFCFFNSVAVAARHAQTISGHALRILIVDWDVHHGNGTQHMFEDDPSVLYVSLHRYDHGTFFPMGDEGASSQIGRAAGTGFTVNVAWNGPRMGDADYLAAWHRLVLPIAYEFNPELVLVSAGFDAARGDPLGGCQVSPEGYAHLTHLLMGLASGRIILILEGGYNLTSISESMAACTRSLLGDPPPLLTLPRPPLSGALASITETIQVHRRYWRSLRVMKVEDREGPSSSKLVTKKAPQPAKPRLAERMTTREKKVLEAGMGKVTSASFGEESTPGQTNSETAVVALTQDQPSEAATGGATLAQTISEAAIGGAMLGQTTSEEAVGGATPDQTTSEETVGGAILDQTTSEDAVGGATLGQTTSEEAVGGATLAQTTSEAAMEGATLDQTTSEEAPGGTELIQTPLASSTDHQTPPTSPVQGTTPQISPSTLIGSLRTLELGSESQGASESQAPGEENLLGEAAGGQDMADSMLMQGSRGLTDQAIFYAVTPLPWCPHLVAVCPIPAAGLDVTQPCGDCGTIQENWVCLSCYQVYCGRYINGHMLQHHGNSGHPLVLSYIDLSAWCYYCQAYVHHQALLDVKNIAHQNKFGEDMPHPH
Protocol: as §1, §2

HDAC-8 = HDAC-8 (Homo sapiens (Human), UniProt Q9BY41); assay: as above; format: biochemical
Sequence of HDAC-8 (Q9BY41 whole entry, species assumed): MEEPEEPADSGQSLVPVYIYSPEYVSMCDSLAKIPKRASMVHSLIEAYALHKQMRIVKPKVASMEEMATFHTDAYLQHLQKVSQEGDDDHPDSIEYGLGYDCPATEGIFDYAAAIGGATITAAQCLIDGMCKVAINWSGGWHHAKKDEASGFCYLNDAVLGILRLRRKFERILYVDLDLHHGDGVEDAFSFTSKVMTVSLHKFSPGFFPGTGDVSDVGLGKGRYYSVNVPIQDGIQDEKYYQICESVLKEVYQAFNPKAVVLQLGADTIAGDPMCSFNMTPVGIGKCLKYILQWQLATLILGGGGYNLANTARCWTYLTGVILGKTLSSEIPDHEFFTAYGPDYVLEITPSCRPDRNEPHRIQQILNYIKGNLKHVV
Protocol: as §1, §2

MM1R = assay: In vitro anti-proliferation assay (ATPlite luminescence); format: cell-based; settings: MM.1R, 72 hours, 5% FBS, read-out: IC50 cell anti-proliferative assay MM1R
Protocol: (§3) Cell antiproliferation was assayed by PerkinElmer ATPlite™ Luminescence Assay System. The cancer cell lines were plated at 10 k cells per well in Costar 96-well plates with different concentration of compounds for 72 hours with 5% FBS. After that, one lyophilized substrate solution vial was reconstituted by adding 5 mL of substrate buffer solution and was agitated gently until the solution is homogeneous. 50 μL of mammalian cell lysis solution was added to 100 μL of cell suspension per well of a microplate and the plate was shaken for five minutes in an orbital shaker at 700 rpm. This procedure will lyses the cells and stabilizes the ATP. Next, 50 μL substrate solution was added to the wells and microplate was shaken for five minutes in an orbital shaker at 700 rpm. Finally the luminescence was measured by a PerkinElmer TopCount® Microplate Scintillation Counter. Such assays, carried out with a range of doses of test compounds, allow the determination of an approximate IC50 value for the in vitro cell antiproliferation assay of cancer cell lines.

MM1S = assay: as above; format: cell-based; settings: Homo sapiens, MM1.S, 72 hours, 5% FBS, read-out: IC50 cell anti-proliferative assay MM1S
Protocol: as §3

RPMI8226 = assay: as above; format: cell-based; settings: Homo sapiens, RPMI-8226; RPMI8226, 72 hours, 5% FBS; read-out: IC50 cell anti-proliferative assay RPMI8226
Protocol: as §3

Sequence of HDAC-2 (Q92769 whole entry, species assumed): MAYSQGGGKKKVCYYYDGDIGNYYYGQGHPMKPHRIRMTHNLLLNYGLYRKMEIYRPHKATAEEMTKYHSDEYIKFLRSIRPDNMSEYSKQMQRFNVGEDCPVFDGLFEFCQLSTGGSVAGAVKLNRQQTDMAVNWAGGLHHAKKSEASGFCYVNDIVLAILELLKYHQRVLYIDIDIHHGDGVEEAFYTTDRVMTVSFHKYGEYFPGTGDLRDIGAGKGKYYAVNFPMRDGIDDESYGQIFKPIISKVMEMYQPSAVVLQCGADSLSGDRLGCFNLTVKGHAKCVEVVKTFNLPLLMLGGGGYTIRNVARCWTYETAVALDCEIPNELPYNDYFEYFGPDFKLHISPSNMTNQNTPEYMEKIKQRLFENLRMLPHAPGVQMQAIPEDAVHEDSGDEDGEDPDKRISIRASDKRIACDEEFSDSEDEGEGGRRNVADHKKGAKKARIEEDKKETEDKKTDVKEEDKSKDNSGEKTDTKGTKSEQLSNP

Row | Compound | HDAC IC50, HDAC-2 (result in words) (HDAC-2) | HDAC IC50, HDAC-3 (result in words) (HDAC-3; Bendamustine, unit not given) | HDAC IC50, HDAC-10 (result in words) (HDAC-10; HDAC-10, Bendamustine, unit not given) | HDAC IC50, HDAC-1 (result in words) (HDAC-1; Bendamustine, unit not given) | HDAC IC50, HDAC-6 (result in words) (HDAC-6; HDAC-6, Bendamustine, unit not given) | HDAC IC50, HDAC-8 (result in words) (HDAC-8; HDAC-8, Bendamustine, unit not given) | IC50 (MM1R) | IC50 (MM1S) | IC50 (RPMI8226) | IC50 (HDAC-2) | IC50 (HDAC-3) | IC50 (HDAC-10) | IC50 (HDAC-1) | IC50 (HDAC-6) | IC50 (HDAC-8)
1 | Cn1c(CCCC(=O)O)nc2cc(N(CCCl)CCCl)ccc21 [Bendamustine] | No activity | No activity | No activity | No activity | No activity | No activity | 100000 nM | 119000 nM | 400000 nM | – | – | – | – | – | –
2 | Cn1c(CCCCCCC(=O)NO)nc2cc(N(CCCl)CCCl)ccc21 [CY190602] | – | – | – | – | – | – | 2660 nM | 1600 nM | 4160 nM | 9 nM | 25 nM | 72 nM | 17 nM | 6 nM | 107 nM
